Measurements as given in the METLIN SMRT retention time set (Domingo-Almenara et al. 2019).

Assay: gradient 5% acetonitrile 3 min, to 50% in 2 min, to 85% in 15 min, held 3 min, 100 µL/min
Settings: column: Zorbax Extend-C18 2.1 x 50 mm; eluents: water / acetonitrile, 0.1% formic acid
How it was run: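 Using water and acetonitrile that each contained 0.1% formic acid, mixtures of ~100 pure standards were separated at 100 μL/min on a Zorbax Extend-C18 column (2.1 × 50 mm, 1.8 μm). The HPLC fed a quadrupole time-of-flight mass spectrometer working in positive and negative ionization mode, with dead and dwell volumes of 40 μL and 900 μL. Data were acquired over 3 months. Retention time was read from computationally picked adduct peaks after manual inspection of each.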

Row | Structure (SMILES) | RP-LC retention time [s]
1 | COc1ccc(C2C(C(=O)N3CC(C)CC(C)C3)CCC(=O)N2c2ccc(OC)cc2)cc1 (stereo not drawn) | 871
2 | COc1ccc2c(c1)c(CN1CCC(C(=O)NCCN(C)Cc3ccccc3)CC1)cn2C | 590
3 | Cc1ccc(CNC(=O)C2(C)CCCCC(=O)N2)cc1 (stereo not drawn) | 685
4 | CC(=O)N1CCc2cc(N3CC(C(=O)Nc4ccc(C)cc4)CC3=O)ccc21 (stereo not drawn) | 720
5 | Cc1cc(C(=O)CN2CCN(C)CC2)c(C)n1-c1cccc(C(F)(F)F)c1 | 588
6 | CCn1cc(-c2ccncc2)cc1C(=O)NCc1cc(C)ccc1C | 705
7 | O=C(Nc1ccc(-c2nnc3n2CCCC3)cc1)C1CCCC1 | 648
8 | O=S(=O)(c1cccn2cnnc12)N(Cc1cccc(F)c1)c1ccc(F)cc1 | 822
9 | Cc1noc(C)c1Cc1ccc(C(=O)N2CCc3nn(C)c(=O)n3CC2)o1 | 633
10 | Cc1nn(-c2ccccc2)c(C)c1S(=O)(=O)N1CCC(C(=O)Nc2ccc(C(C)C)cc2)CC1 | 1100
11 | CCOC(=O)C1=C(CN2CCN(c3ccccn3)CC2)NC(=O)NC1c1ccc(OC(C)C)cc1 (stereo not drawn) | 668
12 | O=C(NCc1nn(Cc2ccccc2)c2ccccc12)c1cnccn1 | 858
13 | CCc1cc(=O)n(CC(=O)Nc2ccc(OC)c(F)c2)c(N2CCOCC2)n1 | 719
14 | CC(C)n1nc(-c2nc(-c3cccc(Cl)c3)no2)ccc1=O | 1150
15 | Cc1ccc(S(=O)(=O)N2CCC(C(=O)NCc3csc(-c4cccs4)n3)CC2)cc1 | 910
16 | Fc1ccc(CN2CCO[C@@H](COc3ccccn3)[C@@H]2c2ccccc2)c(F)c1 | 894
17 | O=C(c1ccc(Br)cc1)N1CCc2cc(-c3ccno3)ccc21 | 1030
18 | CCCc1ccc(S(=O)(=O)N2CCC(n3c(-c4ccoc4)nc4cccnc43)C2)cc1 (stereo not drawn) | 1020
19 | O=C(NCc1nc(-c2ccc3c(c2)Sc2ccccc2C(=O)N3C2CC2)no1)c1cccs1 | 928
20 | COc1ccc(C(=O)Nc2ccc3c(c2)Sc2ncccc2C(=O)N3C)cc1 | 752
21 | CCOC(=O)CNC(=O)NC1CCN(C2=NS(=O)(=O)C(c3ccc(C)cc3)=C2C)CC1 | 743
22 | O=C(CSc1cc(N2CCN(c3ccccc3F)CC2)ncn1)N1CCc2ccccc21 | 1010

Row | Structure (SMILES) | RP-LC retention time [s]
23 | CC(C)c1noc(-c2cc(=O)n(CC(=O)Nc3cccc(F)c3)c3ccccc23)n1 | 1020
24 | CCC(COC(=O)c1cc(OC)c(OC)c(OC)c1)(c1ccccc1)N(C)C (stereo not drawn) | 752
25 | Cc1ccc(S(=O)(=O)N2CCCC(CCC(=O)N3CCOCC3)C2)cc1 (stereo not drawn) | 814
26 | CCCN1CCN(CCNc2nnc(-c3nc(C4CC4)no3)c3ccccc23)CC1 | 597
27 | CCN(C(=O)CC(C)S(=O)(=O)c1ccc2c(c1)CCN2C(=O)C1CC1)c1ccccc1 (stereo not drawn) | 867
28 | O=C(Nc1ccc(F)cc1)C1CCN(C(=O)c2ncn3c2COC(c2ccccc2)C3)CC1 (stereo not drawn) | 791
29 | COc1ccc(-c2nc3ncccn3c2Nc2ccccc2)cc1 | 700
30 | CCOc1ccc(-c2nc(Cc3noc(-c4cccc(OC)c4)n3)c(C)o2)cc1 | 1220
31 | Cc1cc2[nH]c(C(=O)Nc3ccc(F)c(F)c3F)c(CN3CCOCC3)c2s1 | 743
32 | O=C1CC(c2noc(-c3ccccc3F)n2)CN1c1ccc(Cl)cc1 (stereo not drawn) | 1010
33 | N#Cc1ccc(Cl)cc1NC(=O)C(=O)NCC1CCCO1 (stereo not drawn) | 759
34 | COc1ccccc1-c1nocc1CCC(=O)O | 686
35 | O=C(NCCCN1CCOC(c2ccccc2)C1)c1ccc(Cl)cc1Cl (stereo not drawn) | 599
36 | Cc1cc(N2CCCC2)nc(N2CCN(S(=O)(=O)c3ccc4c(c3)Cc3ccccc3-4)CC2)n1 | 924
37 | O=C(Cn1cccc(-c2nc(-c3ccc(F)cc3)no2)c1=O)Nc1ccccc1Br | 912
38 | COc1ccc2[nH]cc(CCN3CC(C(=O)Nc4ccc(C)cc4C)CC3=O)c2c1 (stereo not drawn) | 775
39 | O=C(CCC1CCN(S(=O)(=O)c2ccccc2)CC1)N1CCCCC1 | 894
40 | O=C(NCc1ccc(F)c(Cl)c1)C1CCCN(c2nccnc2Sc2ccccc2)C1 (stereo not drawn) | 1100
41 | CCN1CCN(S(=O)(=O)c2cc(-c3nnc(C4CCCC4)o3)co2)CC1 | 637
42 | Cc1cc(NC(=O)Cn2ccn3nc(-c4ccccc4)c(CO)c3c2=O)no1 | 714
43 | Cc1ccc(Cn2c(=O)n(CCNC(=O)C3CCOC3)c3ncccc32)cc1 (stereo not drawn) | 710
44 | Cc1ccc2c(c1)N(C(=O)c1ccc(C#N)cc1)CCO2 | 925

Row | Structure (SMILES) | RP-LC retention time [s]
45 | Cc1cccc(-c2[nH]c(C(C)(C)C)nc2-c2ccc3nccnc3c2)n1 | 659
46 | CCOC(=O)C1=C(CN2CCCCC2)NC(=O)NC1c1ccco1 (stereo not drawn) | 579
47 | CCc1nc2c(NC(=O)CC3CCCCC3)cccn2n1 | 960
48 | COc1ccccc1CNC(=O)c1ccc2c(c1)NC(=O)C1CCCCN21 (stereo not drawn) | 809
49 | COc1ccccc1-n1nnc(C(=O)Nc2nc(C)cs2)c1-c1ccccn1 | 758
50 | COc1ccccc1NC(=O)NCCCn1c(C(F)(F)F)nc2cccnc21 | 797
51 | Cc1cc(C)c(S(=O)(=O)N2CCCC2c2nc(-c3ccccc3)no2)c(C)c1 (stereo not drawn) | 1230
52 | Cn1c(=O)c2c(ncn2CC(=O)OCc2cc(-c3cccs3)on2)n(C)c1=O | 697
53 | CC(NC(=O)C1CC(=O)N(c2ccc3c(c2)CCN3C(=O)C2CC2)C1)c1ccccc1 (stereo not drawn) | 740
54 | Cc1ccc2oc(C(=O)NCc3c(F)cccc3F)cc2n1 | 652
55 | CCOc1ccc(NC(=O)N2CCC(n3cnc4cc(F)ccc4c3=O)CC2)cc1 | 797
56 | COc1cc(C(=O)Nc2nc3c(s2)Cc2c(Br)ccc(OC)c2-3)cc(OC)c1OC | 1170
57 | Cc1cc(C)c(S(=O)(=O)N2CCn3c(nn(CC4CC4)c3=O)C2)cc1C | 873
58 | CCOc1ccccc1CNC(=O)C1CCCN(c2nccnc2Sc2ccccc2)C1 (stereo not drawn) | 1110
59 | CC(NC(=O)COc1ccc(NC(=O)C2CC2)cn1)c1ccccc1 (stereo not drawn) | 744
60 | O=C(Cn1c(SCc2cccc(F)c2)nc2cccnc21)N1CCCC1 | 647
61 | CCc1nnc(-c2cc(C)n(CC(=O)Nc3ccc(F)c(Cl)c3)c2C)o1 | 861
62 | Cc1nc2nc(-c3ccc(C(C)(C)C)cc3)nn2c(C)c1CC(=O)N1CCN(CCO)CC1 | 657
63 | O=C(CN1C(=O)CCC1=O)N1CC(c2nc(-c3cccc(C(F)(F)F)c3)no2)C1 | 754
64 | CCN(CC)CCCNC(=O)Cn1c(=O)c2cccn2c2ccccc21 | 602
65 | O=C(COc1ccccc1)N1CCCCC1c1nncn1CC1CC1 (stereo not drawn) | 731
66 | CC(C)S(=O)(=O)N1CCC(CCOc2ccccc2)C1 (stereo not drawn) | 980

Row | Structure (SMILES) | RP-LC retention time [s]
67 | CCC(=O)NC(C)c1nc(-c2ccccc2OC)no1 (stereo not drawn) | 665
68 | CCN1c2ccc(C)cc2C(=O)NC12CCN(C(=O)c1ccc(F)c(F)c1)CC2 | 826
69 | O=S(=O)(c1cccnc1)N1CCN(c2ccc(-c3cccs3)nn2)CC1 | 692
70 | Cc1nn(CC(=O)N2CCC(N3CCCCC3)CC2)c(=O)c2nn(-c3ccccc3)c(C)c12 | 605
71 | Cc1cc(N2CCC(NC(=O)Nc3ccc(Cl)cc3F)C2=O)ccc1F (stereo not drawn) | 923
72 | Cc1cc(NC(=O)c2ccc3c(c2)nnn3Cc2ccccc2)no1 | 819
73 | COCCCn1cc(C(=O)N2CCc3ccccc3C2)c2nn(-c3ccccc3)c(=O)c-2c1 | 770
74 | Cc1ccc(S(=O)(=O)Nc2ccc3c(c2)CCC(=O)N3CC(C)C)cc1C | 939
75 | COc1ccccc1C(=O)N1CCC(Oc2cc(N(C)C)ncn2)C1 (stereo not drawn) | 639
76 | O=C(c1cccc(N2CCCS2(=O)=O)c1)N1CCN(c2ccccn2)CC1 | 578
77 | O=C(NCCCN1CCCCCC1)c1ccc2c(c1)NC(=O)C1CCCCN21 (stereo not drawn) | 609
78 | CC(C)c1ccc(NC(=O)C2CCN(S(=O)(=O)c3cc(C(=O)N(C)C)cs3)CC2)cc1 | 958
79 | O=C(NCCN1CCN(c2ccc(F)cc2)CC1)C(=O)NCc1ccc(F)cc1 | 588
80 | Cc1ccc(C)c(S(=O)(=O)N2CCc3c(c(-c4nnc(-c5ccc(F)cc5)o4)nn3C)C2)c1 | 1040
81 | O=C(c1ccc(-c2noc(C3CC3)n2)cc1)N1CCCN(c2nc3ncccc3o2)CC1 | 760
82 | O=S(=O)(c1cc(F)cc(F)c1)N1CCC(c2noc(-c3cccc(F)c3)n2)CC1 | 1170
83 | CN(C)c1cc(C(=O)Nc2ccccc2)c2ccccc2n1 | 651
84 | CCN1C(=O)C2(CCN(C(=O)C3CCCCC3)CC2)c2ccccc21 | 950
85 | CN(CC1CCOCC1)C(=O)Nc1cccc(Br)c1 | 784
86 | CCOc1ccc(NC(=O)c2cn(-c3cc(N4CCCCC4C)ncn3)cn2)cc1 (stereo not drawn) | 1110
87 | COc1ccc(-c2ncc3c(n2)CCN(C(=O)Nc2ccccc2C(F)(F)F)C3)cc1 | 939
88 | COc1ccc(CCC(=O)Nc2cnn(-c3ncc(N4CCCC4)cn3)c2)cc1 | 822
